Results as given in US10777299B2, “Systems and methods for matching oncology signatures” (THE TRUSTEES OF COLUMBIA UNIVERSITY IN THE CITY OF NEW YORK, priority 2015, dated 2020).

How the values were obtained:
[1] = system: H-STS xenograft checkpoint MRs; test: OncoTreat: VIPER-inferred MR reversal after compound perturbation of H-STS cells, xenograft MRs; assay type: cell-based, human; settings: H-STS cell perturbation
Procedure: (§1) To assess the ability of these compounds to induce Tumor Checkpoint collapse (i.e., global inversion of patient-derived MR activity pattern), gene expression profiles were generated at 6 h and 24 h following perturbation of H-STS cells with two sub-lethal compound concentrations, the 72 h IC20 and 1/10th of that concentration in duplicate. The 24 h time point was considered more informative for long term response. These were produced by 30M SE read Illumina TruSeq profiling of RNA purified from treated cells as well as from cells treated with control media (DMSO). This ensured that the highest compound concentration can be tested that would not induce cell death processes and would thus faithfully recapitulate the compound mechanism of action (MoA) rather than the mechanisms and programs associated with cell demise. While in vivo endpoint phenotypes (e.g., tumor viability) are not effectively recapitulated in 2D cultures in vitro, compound MoA is reasonably well-recapitulated in both contexts. One aim can be to identify compounds capable of inverting MR activity signature in vitro in a relatively faithful model of the tumor regulatory context, to assess whether these compounds would have activity in vivo.
(§2) Drug signatures were analyzed with VIPER to assess the change in protein activity before and after the perturbation. Specifically, RX-GES were generated by differential expression of compound-treated vs. control-vehicle-treated cells at all time points and concentrations and analyzed with VIPER against the EP-NET interactome. This ranked all 5,602 regulatory proteins represented in the interactome from the one whose activity was most inhibited to the one whose activity was most increased following drug perturbation. An aREA analysis of patient samples that were well represented by the H-STS xenograft model was performed to assess enrichment of metastatic progression MRs in proteins whose activity was most inverted following drug perturbation. Since validation of these predictions was performed in H-STS mouse xenograft models, the analysis was limited to each NET-MET MRs that were recapitulated in the H-STS xenograft. […] Rather they allow optimal tuning of the results to available in vitro and in vivo models for optimal design of validation assays. Thus, the OncoTreat methodology uses the ability to prioritize small molecule compounds that optimally reverse a patient-specific MR activity signature.
(§3) FIG. 15 depicts the enrichment of the top 50 most activated (shown in red in the enrichment plots) and the top 50 most deactivated (shown in blue) proteins in patient 0 on the protein activity signature induced by each compound perturbation in the H-STS cell line. […] The colored bar indicates the tissue of origin for each of the evaluated tumors.

[2] = system: patient-0 metastasis checkpoint MRs; test: OncoTreat: VIPER-inferred MR reversal after compound perturbation of H-STS cells, patient-0 MRs; assay type: cell-based, human; settings: H-STS cell perturbation, FIG. 10A
Procedure: as §1, §2
as §3, with “tumors. […]” for “tumors.”

[3] = system: rectal neuroendocrine tumor metastasis (NET-MET) tumor checkpoint; test: Drug-induced VIPER-inferred protein activity signatures in H-STS cells versus NET-MET checkpoint; assay type: cell-based, human; settings: H-STS cell line
Excerpt: Drug MoA information was inferred using a NET liver metastasis-derived cell line (H-STS), which recapitulated the tumor checkpoint inferred from patient's samples (FIG. 6A).
Drug-induced VIPER-inferred protein activity signatures were obtained for a few drugs including entinostat. […] Drug MoA information was inferred using a NET liver metastasis-derived cell line (H-STS), which recapitulated the tumor checkpoint inferred from patient's samples, as shown in FIG. 6A.

H-STS xenograft [4] = test: H-STS xenograft tumor growth, Champions Oncology (TGI, RECIST, TR); assay type: in vivo, mice; settings: for % TGI: H-STS xenograft in NOD-SCIDS mice, treated 25 days; for effect on H-STS xenograft tumor growth (FIG. 4B): H-STS xenograft models; for RECIST PD/SD/PR/CR: number of mice per response class; for % TR (tumor regression): H-STS xenograft
Procedure: All test agents were formulated according to manufacturer's specifications. Beginning Day 0, tumor dimensions were measured twice weekly by digital caliper and data, including individual and mean estimated tumor volumes (Mean TV±SEM), were recorded for each group. Tumor volume was calculated using the formula: […].
At study completion, percent tumor growth inhibition (% TGI) values were calculated and reported for each treatment group (T) versus control (C) using initial (i) and final (f) tumor measurements by the formula: % TGI=[1−(Tf−Ti)/(Cf−Ci)]×100. Individual mice reporting a tumor volume >120% of the Day 0 measurement were considered to have progressive disease (PD). Individual mice with neither sufficient shrinkage nor sufficient tumor volume increases are considered to have stable disease (SD). Individual mice reporting a tumor volume ≤70% of the Day 0 measurement for two consecutive measurements over a seven day period were considered partial responders (PR). If the PR persisted until study completion, percent tumor regression (% TR) was determined using the formula: % TR=(1−Tf/Ti)×100; a mean value was calculated for the entire treatment group. Individual mice lacking palpable tumors for two consecutive measurements over a seven day period were classified as complete responders (CR). All data collected in this study were managed electronically and stored on a redundant server system.
(§4) In vivo validation in NOD-SCIDS mice xenografts established by subcutaneous injection of H-STS cells was first conducted at Champions Oncology and then independently confirmed in the mouse hospital facility at Columbia University. Mice were enrolled in treatment arms when tumor size reached 250 mm^3 and were treated for 25 days. Tumor size was measured twice weekly by digital caliper, see methods.

H-STS xenograft [5] = test: H-STS xenograft tumor growth, follow-up studies at Columbia; assay type: in vivo, mice; settings: mean of 8 animals
Procedure: as §4
This is in line with the poor effect of Bardoxolone methyl, I-BET151 and Bortezomib on xenograft tumor growth, and the strong abrogation elicited by Entinostat (FIGS. 10B and 10C). In summary, while the effect of the Entinostat, I-BET151 and Bardoxolone methyl on the reversal of patient-0 checkpoint activity inferred from the in vitro H-STS perturbation assay was confirmed in the xenograft model, only Entinostat reverted the activity of the H-STS xenograft checkpoints and abrogated tumor growth (FIG. 10).
FIG. 10A depicts enrichment of patient-0 metastasis checkpoint MRs on the protein activity signatures induced by 6 selected compounds in the H-STS cells. FIGS. 10B and 10C depict growth curves for the H-STS xenograft while treated by vehicle control, and each of the 6 selected compounds. Curves show tumor volume for individual animals (FIG. 10B) or the mean±SEM of 8 animals (FIG. 10C). FIG. 10D depicts enrichment of patient-0 metastasis checkpoint on the protein activity signatures induced by 4 selected compounds in the H-STS xenograft. FIG. 10E depicts enrichment of H-STS xenograft checkpoint on the protein activity signatures induced by 4 selected compounds in the H-STS xenograft.

[6] = system: patient-0 checkpoint protein activity; test: Xenograft transcriptome analysis after drug administration, patient-0 checkpoint; assay type: in vivo, mice; settings: xenograft transcriptome 3 hours after 3rd drug administration
[7] = system: H-STS xenograft checkpoint; test: Xenograft transcriptome analysis after drug administration, H-STS xenograft checkpoint; assay type: in vivo, mice; settings: xenograft transcriptome 3 hours after 3rd drug administration

O=C(/C=C/c1cccc(S(=O)(=O)Nc2ccccc2)c1)NO [Belinostat]
reversal of xenograft MRs (in words) [1]: no significant reversal | reversal of patient-0 MRs (in words) [2]: no significant reversal | reverting the NET-MET tumor checkpoint (FIG. 4A) [3]: not affecting NET-MET checkpoint | % TGI (H-STS xenograft [4]; 20 mg (text: 20 mg/kg/dose)): 8% | % TGI (H-STS xenograft [4]; 20 mg (text: 20 mg/kg/dose), listed as PDX101): 8% | % TGI (H-STS xenograft [4]; 40 mg): −55% | effect on H-STS xenograft tumor growth (FIG. 4B) (H-STS xenograft [4]): did not abrogate tumor growth | RECIST PD/SD/PR/CR (H-STS xenograft [4]; 20 mg): 3/0/0/0 | RECIST PD/SD/PR/CR (H-STS xenograft [4]; 40 mg): 3/0/0/0

CC(C)C[C@H](NC(=O)[C@H](Cc1ccccc1)NC(=O)c1cnccn1)B(O)O [Bortezomib]
xenograft tumor growth versus vehicle control (FIG. 10C) (H-STS xenograft [5]): no significant difference | inhibition of patient-0 checkpoint protein activity in xenograft (FIG. 10D) [6]: no effect

Nc1ccccc1NC(=O)c1ccc(CNC(=O)OCc2cccnc2)cc1 [Entinostat]
xenograft tumor growth versus vehicle control (FIG. 10C) (H-STS xenograft [5]): complete tumor growth abrogation | reversal of xenograft MRs (in words) [1]: significantly abrogating | reversal of xenograft MRs (in words) ([1]; listed as entinostat): most significant reversal | reversal of patient-0 MRs (in words) [2]: significantly abrogating | reversal of patient-0 MRs (in words) ([2]; listed as entinostat): most significant reversal | inhibition of patient-0 checkpoint protein activity in xenograft (FIG. 10D) [6]: strong inhibition | reverting the NET-MET tumor checkpoint (FIG. 4A) [3]: most potent agent | inhibition of the H-STS xenograft checkpoint in xenograft (FIG. 10E) [7]: significant inhibition | drug toxicity / animal deaths (H-STS xenograft [4]; 100 mg (text: 100 mg/kg/dose), one week into the test): toxic | % TGI (H-STS xenograft [4]; 25 mg (text: 25 mg/kg/dose)): 112% | % TGI (H-STS xenograft [4]; 25 mg (text: 25 mg/kg/dose), listed as MS-27-275): 112% | % TGI (H-STS xenograft [4]; 50 mg (50 mg/kg/dose)): 110% | % TGI (H-STS xenograft [4]; 50 mg (50 mg/kg/dose), listed as MS-27-275): 110% | effect on H-STS xenograft tumor growth (FIG. 4B) (H-STS xenograft [4]): abrogated completely tumor growth | % TR (tumor regression) (H-STS xenograft [4]; 25 mg (text: 25 mg/kg/dose)): 68% | % TR (tumor regression) (H-STS xenograft [4]; 50 mg (50 mg/kg/dose)): 58% | % TR (tumor regression) (H-STS xenograft [4]; 100 mg (text: 100 mg/kg/dose), single surviving animal): 49% | RECIST PD/SD/PR/CR (H-STS xenograft [4]; 25 mg): 0/0/3/0 | RECIST PD/SD/PR/CR (H-STS xenograft [4]; 50 mg): 0/0/3/0 | RECIST PD/SD/PR/CR (H-STS xenograft [4]; 100 mg): 0/0/1/0

COc1cc2c(cc1-c1c(C)noc1C)ncc1[nH]c(=O)n([C@H](C)c3ccccn3)c12 [I-BET151]
xenograft tumor growth versus vehicle control (FIG. 10C) (H-STS xenograft [5]): no significant difference | reversal of xenograft MRs (in words) [1]: significantly abrogating | reversal of patient-0 MRs (in words) [2]: significantly abrogating | inhibition of patient-0 checkpoint protein activity in xenograft (FIG. 10D) [6]: strong inhibition

O=C1NC(=O)[C@@H](c2cn3c4c(cccc24)CCC3)[C@@H]1c1c[nH]c2ccccc12 [Tivantinib]
% TGI (H-STS xenograft [4]; 50 mg (50 mg/kg/dose)): −46% | % TGI (H-STS xenograft [4]; 100 mg (text: 100 mg/kg/dose)): 28% | % TGI (H-STS xenograft [4]; 100 mg (text: 100 mg/kg/dose), listed as ARQ197): 28% | % TGI (H-STS xenograft [4]; 200 mg (text: 200 mg/kg/dose)): 43% | % TGI (H-STS xenograft [4]; 200 mg (text: 200 mg/kg/dose), listed as ARQ197): 43%
